Tests used:
kappa opioid receptor = kappa opioid receptor (Homo sapiens, UniProt P41145); test: In vitro kappa-opioid receptor functional assay ([35S]GTPγS); format: biochemical
hERG channel = molecular target: T1, hERG channel (Homo sapiens, UniProt Q12809); test: In vitro hERG (human ether a-go-go gene) assay; format: cell-based
T1 construct: expressed in transfected cells

[1] = rat, in vivo
[2] = tested on: guinea pig purkinje fibers

T1 sequence (Q12809 whole entry): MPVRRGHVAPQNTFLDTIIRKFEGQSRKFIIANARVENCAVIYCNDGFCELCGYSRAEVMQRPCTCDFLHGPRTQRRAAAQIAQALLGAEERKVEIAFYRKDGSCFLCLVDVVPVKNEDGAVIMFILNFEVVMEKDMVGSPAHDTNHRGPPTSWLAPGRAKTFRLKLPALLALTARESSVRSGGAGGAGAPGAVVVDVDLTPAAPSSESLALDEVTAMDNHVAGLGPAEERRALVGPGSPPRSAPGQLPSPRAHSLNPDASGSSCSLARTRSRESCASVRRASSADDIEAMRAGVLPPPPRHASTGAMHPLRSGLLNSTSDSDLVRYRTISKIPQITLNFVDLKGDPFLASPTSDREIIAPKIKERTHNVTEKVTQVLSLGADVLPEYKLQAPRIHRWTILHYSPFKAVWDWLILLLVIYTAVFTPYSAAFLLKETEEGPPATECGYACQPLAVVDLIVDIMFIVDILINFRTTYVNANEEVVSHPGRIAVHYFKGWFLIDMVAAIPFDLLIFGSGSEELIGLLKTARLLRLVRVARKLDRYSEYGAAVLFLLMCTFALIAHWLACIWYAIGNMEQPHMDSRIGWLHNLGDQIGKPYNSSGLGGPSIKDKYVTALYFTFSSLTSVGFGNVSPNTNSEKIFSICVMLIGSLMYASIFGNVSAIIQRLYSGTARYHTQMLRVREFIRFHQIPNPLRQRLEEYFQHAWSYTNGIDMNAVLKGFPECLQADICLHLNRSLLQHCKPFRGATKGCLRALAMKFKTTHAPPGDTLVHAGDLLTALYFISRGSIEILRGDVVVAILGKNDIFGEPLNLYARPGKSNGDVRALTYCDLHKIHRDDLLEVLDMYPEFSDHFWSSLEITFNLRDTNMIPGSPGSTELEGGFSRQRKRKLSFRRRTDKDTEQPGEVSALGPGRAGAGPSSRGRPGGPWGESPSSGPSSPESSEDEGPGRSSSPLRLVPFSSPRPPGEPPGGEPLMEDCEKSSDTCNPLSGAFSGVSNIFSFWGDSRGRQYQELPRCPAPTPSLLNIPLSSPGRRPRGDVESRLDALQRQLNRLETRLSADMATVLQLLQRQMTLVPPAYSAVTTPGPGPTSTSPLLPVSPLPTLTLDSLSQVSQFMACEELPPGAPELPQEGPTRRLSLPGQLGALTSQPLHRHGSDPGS
kappa opioid receptor, sequence (P41145 whole entry): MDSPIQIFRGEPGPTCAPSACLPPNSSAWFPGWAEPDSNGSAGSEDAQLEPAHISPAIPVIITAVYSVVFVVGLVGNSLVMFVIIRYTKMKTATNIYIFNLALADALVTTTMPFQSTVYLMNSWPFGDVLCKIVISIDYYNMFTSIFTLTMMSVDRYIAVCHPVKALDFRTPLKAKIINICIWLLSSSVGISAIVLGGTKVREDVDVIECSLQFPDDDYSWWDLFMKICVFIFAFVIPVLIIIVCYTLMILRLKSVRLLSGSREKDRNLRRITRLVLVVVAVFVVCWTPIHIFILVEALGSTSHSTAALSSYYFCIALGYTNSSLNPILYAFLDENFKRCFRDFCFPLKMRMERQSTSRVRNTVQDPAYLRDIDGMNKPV

Compound | EC50 (kappa opioid receptor) [µM] | cardiovascular side effects (hERG assay) (hERG channel) | abnormal behavioral side effects, such as sedation, hyperactivity and/or hypoactivity [1] | cardiovascular side effects (APD) [2]
O=C(O)C1CCN(c2nc3ccccc3n([C@H]3C[C@H]4CC[C@@H](C3)N4C3CCCCCCC3)c2=O)CC1 [Compound 99, 1-(4-((endo)-8-cyclooctyl-8-azabicyclo[3.2.1]octan-3-yl)-3-oxo-3,4-dihydroquinoxalin-2-yl)piperidine-4-carboxylic acid] | > 100 |  |  | 
O=C(O)c1nc2ccccc2n([C@H]2C[C@H]3CCC[C@@H](C2)N3C2CC3CCCC(C3)C2)c1=O (stereo partly drawn) [Compound 362, 4-((endo)-9-((exo)-bicyclo[3.3.1]nonan-3-yl)-9-azabicyclo[3.3.1]nonan-3-yl)-3-oxo-3,4-dihydroquinoxaline-2-carboxylic acid] |  | reduced cardiovascular side effects | reduced abnormal behavioral side effects | reduced cardiovascular side effects
